Results published in paper PMC6150173, “Tryptophan-Containing Cyclic Decapeptides with Activity against Plant Pathogenic Bacteria” (Molecules : A Journal of Synthetic Chemistry and Natural …, 2017).
Peptide text beside a SMILES is read from it.

Experiments:
Format in all cases: cell-based
[1] = system: Xanthomonas axonopodis pv. vesicatoria 2133-2; conditions: Table S1, MIC range
In short: (§1)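 MIC determined by in vitro growth inhibition across 0.8, 1.6, 3.1, 6.2, 12.5, 25 and 50 μM peptide. Strains tested: E. amylovora PMV6076, P. syringae pv. syringae EPS94 and X. axonopodis pv. vesicatoria 2133-2.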

[2] = system: erythrocyte suspensions of human blood; assay: Hemolytic activity, hemoglobin release; conditions: human blood erythrocytes 5% v/v, absorbance 540 nm, percentage compared to melittin, three replicates; for Hemolysis (%) at 50 µM: peptide 50 μM (table prints 50 µM); for Hemolysis (%) at 125 µM: peptide 125 μM (table prints 125 µM)
Method: The hemolytic activity of the compounds was evaluated at 50 and 125 μM by determining hemoglobin release from erythrocyte suspensions of human blood (5% v/v) (Oxoid) using absorbance at 540 nm, as previously described. Three replicates for each peptide concentration were used.

[3] = system: Pseudomonas syringae pv. syringae EPS94; assay: Antibacterial activity (MIC), in vitro growth inhibition; conditions: Table S1, MIC range
In short: as §1

[4] = system: Erwinia amylovora PMV6076; assay: as above; conditions: Table S1, MIC range
In short: as §1

| Structure (SMILES) | MIC Xav [1] | Hemolysis (%) at 50 µM [2] | Hemolysis (%) at 125 µM [2] | MIC Pss [3] | MIC Ea [4] |
| --- | --- | --- | --- | --- | --- |
| CC(C)C[C@@H]1NC(=O)[C@H](CCCCN)NC(=O)[C@H](Cc2c[nH]c3ccccc23)NC(=O)[C@H](CCCCN)NC(=O)[C@H](CCCCN)NC(=O)[C@H](CC(C)C)NC(=O)[C@H](CC(C)C)NC(=O)[C@H](CCCCN)NC(=O)[C@H](CCC(N)=O)NC(=O)[C@H](CCCCN)NC1=O [BPC122W, c(KLLKKWKLKQ)] (cyclo(KKWKLKQKLL)) | 6.2 to 12.5 µM | 2% | 6% | 3.1 to 6.2 µM | 12.5 to 25 µM |
| CC(C)C[C@@H]1NC(=O)[C@H](CCCCN)NC(=O)[C@H](Cc2c[nH]c3ccccc23)NC(=O)[C@H](CCCCN)NC(=O)[C@H](CCCCN)NC(=O)[C@H](CCCCN)NC(=O)[C@H](CC(C)C)NC(=O)[C@H](CC(C)C)NC(=O)[C@H](CCC(N)=O)NC(=O)[C@H](CCCCN)NC1=O [BPC126W, c(LLKKKWKLKQ)] (cyclo(KKKWKLKQLL)) | 1.6 to 3.1 µM | 5% | 9% | 6.2 to 12.5 µM | 25 to 50 µM |
| CC(C)C[C@@H]1NC(=O)[C@H](CCCCN)NC(=O)[C@H](CCCCN)NC(=O)[C@H](CCCCN)NC(=O)[C@H](CCC(N)=O)NC(=O)[C@H](CCCCN)NC(=O)[C@H](CCCCN)NC(=O)[C@H](CC(C)C)NC(=O)[C@H](Cc2c[nH]c3ccccc23)NC(=O)[C@H](CC(C)C)NC1=O [BPC128W, c(KKKLLWLKKQ)] (cyclo(KKKLLWLKKQ)) | 1.6 to 3.1 µM | 2% | 2% | 6.2 to 12.5 µM | 12.5 to 25 µM |
| CC(C)C[C@@H]1NC(=O)[C@H](CCCCN)NC(=O)[C@H](CCCCN)NC(=O)[C@H](CCC(N)=O)NC(=O)[C@H](CCCCN)NC(=O)[C@H](CCCCN)NC(=O)[C@H](CC(C)C)NC(=O)[C@H](Cc2c[nH]c3ccccc23)NC(=O)[C@H](CC(C)C)NC(=O)[C@H](CCCCN)NC1=O [BPC130W, c(KKLKLWLKKQ)] (cyclo(KKLKLWLKKQ)) | 1.6 to 3.1 µM | 1% | 2% | 6.2 to 12.5 µM | 12.5 to 25 µM |
| CC(C)C[C@@H]1NC(=O)[C@H](CCCCN)NC(=O)[C@H](CCC(N)=O)NC(=O)[C@H](CCCCN)NC(=O)[C@H](CCCCN)NC(=O)[C@H](CC(C)C)NC(=O)[C@H](Cc2c[nH]c3ccccc23)NC(=O)[C@H](CC(C)C)NC(=O)[C@H](CCCCN)NC(=O)[C@H](CCCCN)NC1=O [BPC132W, c(KLKKLWLKKQ)] (cyclo(KKLWLKKQKL)) | 1.6 to 3.1 µM | 5% | 8% and below 20% | 3.1 to 6.2 µM | 12.5 to 25 µM |
| CC(C)C[C@@H]1NC(=O)[C@H](CCC(N)=O)NC(=O)[C@H](CCCCN)NC(=O)[C@H](CCCCN)NC(=O)[C@H](CC(C)C)NC(=O)[C@H](Cc2c[nH]c3ccccc23)NC(=O)[C@H](CC(C)C)NC(=O)[C@H](CCCCN)NC(=O)[C@H](CCCCN)NC(=O)[C@H](CCCCN)NC1=O [BPC134W, c(LKKKLWLKKQ)] (cyclo(KKKLWLKKQL)) | 3.1 to 6.2 µM | 3% | 4% | 6.2 to 12.5 µM | 25 to 50 µM |
| CC(C)C[C@@H]1NC(=O)[C@H](CCCCN)NC(=O)[C@H](CCCCN)NC(=O)[C@H](CCC(N)=O)NC(=O)[C@H](CCCCN)NC(=O)[C@H](CCCCN)NC(=O)[C@H](CC(C)C)NC(=O)[C@H](Cc2c[nH]c3ccccc23)NC(=O)[C@H](CCCCN)NC(=O)[C@H](CC(C)C)NC1=O [BPC136W, c(KKLLKWLKKQ)] (cyclo(KKLLKWLKKQ)) | 3.1 to 6.2 µM | 1% | 2% | 6.2 to 12.5 µM | 6.2 to 12.5 µM |
| CC(C)C[C@@H]1NC(=O)[C@H](CCCCN)NC(=O)[C@H](CC(C)C)NC(=O)[C@H](CCCCN)NC(=O)[C@H](CCC(N)=O)NC(=O)[C@H](CCCCN)NC(=O)[C@H](CCCCN)NC(=O)[C@H](CC(C)C)NC(=O)[C@H](Cc2c[nH]c3ccccc23)NC(=O)[C@H](CCCCN)NC1=O [BPC138W, c(KLKLKWLKKQ)] (cyclo(KKQKLKLKWL)) | 3.1 to 6.2 µM | 7% | 14% | 6.2 to 12.5 µM | 25 to 50 µM |
| CC(C)C[C@@H]1NC(=O)[C@H](CCC(N)=O)NC(=O)[C@H](CCCCN)NC(=O)[C@H](CCCCN)NC(=O)[C@H](CC(C)C)NC(=O)[C@H](Cc2c[nH]c3ccccc23)NC(=O)[C@H](CCCCN)NC(=O)[C@H](CC(C)C)NC(=O)[C@H](CCCCN)NC(=O)[C@H](CCCCN)NC1=O [BPC140W, c(LKKLKWLKKQ)] (cyclo(KKLKWLKKQL)) | 3.1 to 6.2 µM | 31% | 37% | 6.2 to 12.5 µM | 12.5 to 25 µM |
| CC(C)C[C@@H]1NC(=O)[C@H](CCCCN)NC(=O)[C@H](CCC(N)=O)NC(=O)[C@H](CCCCN)NC(=O)[C@H](CCCCN)NC(=O)[C@H](CC(C)C)NC(=O)[C@H](Cc2c[nH]c3ccccc23)NC(=O)[C@H](CCCCN)NC(=O)[C@H](CCCCN)NC(=O)[C@H](CC(C)C)NC1=O [BPC142W, c(KLLKKWLKKQ)] (cyclo(KKQKLLKKWL)) | 3.1 to 6.2 µM | 16% | 18% | 6.2 to 12.5 µM | 12.5 to 25 µM |
| CC(C)C[C@@H]1NC(=O)[C@H](CCCCN)NC(=O)[C@H](CC(C)C)NC(=O)[C@H](CCC(N)=O)NC(=O)[C@H](CCCCN)NC(=O)[C@H](CCCCN)NC(=O)[C@H](CC(C)C)NC(=O)[C@H](Cc2c[nH]c3ccccc23)NC(=O)[C@H](CCCCN)NC(=O)[C@H](CCCCN)NC1=O [BPC144W, c(LKLKKWLKKQ)] (cyclo(KKQLKLKKWL)) | 1.6 to 3.1 µM | 16% | 21% | 3.1 to 6.2 µM | 12.5 to 25 µM |
| CC(C)C[C@@H]1NC(=O)[C@H](CCC(N)=O)NC(=O)[C@H](CCCCN)NC(=O)[C@H](CCCCN)NC(=O)[C@H](CC(C)C)NC(=O)[C@H](Cc2c[nH]c3ccccc23)NC(=O)[C@H](CCCCN)NC(=O)[C@H](CCCCN)NC(=O)[C@H](CCCCN)NC(=O)[C@H](CC(C)C)NC1=O [BPC146W, c(LLKKKWLKKQ)] (cyclo(KKKWLKKQLL)) | 3.1 to 6.2 µM | 4% | 7% | 3.1 to 6.2 µM | 25 to 50 µM |
| CC(C)C[C@@H]1NC(=O)[C@H](CCCCN)NC(=O)[C@H](CC(C)C)NC(=O)[C@H](CC(C)C)NC(=O)[C@H](CCCCN)NC(=O)[C@H](CCC(N)=O)NC(=O)[C@H](CCCCN)NC(=O)[C@H](CCCCN)NC(=O)[C@H](CCCCN)NC(=O)[C@H](Cc2c[nH]c3ccccc23)NC1=O [BPC154W, c(KLLKLWKKKQ)] (cyclo(KKKQKLLKLW)) | 1.6 to 3.1 µM | 4% | 7% | 3.1 to 6.2 µM | 25 to 50 µM |
| CC(C)C[C@@H]1NC(=O)[C@H](CCCCN)NC(=O)[C@H](CCCCN)NC(=O)[C@H](CC(C)C)NC(=O)[C@H](CC(C)C)NC(=O)[C@H](CCC(N)=O)NC(=O)[C@H](CCCCN)NC(=O)[C@H](CCCCN)NC(=O)[C@H](CCCCN)NC(=O)[C@H](Cc2c[nH]c3ccccc23)NC1=O [BPC158W, c(LLKKLWKKKQ)] (cyclo(KKKQLLKKLW)) | 1.6 to 3.1 µM | 10% | 14% | 12.5 to 25 µM | 12.5 to 25 µM |
| CC(C)C[C@@H]1NC(=O)[C@H](CCCCN)NC(=O)[C@H](CCCCN)NC(=O)[C@H](Cc2c[nH]c3ccccc23)NC(=O)[C@H](CCCCN)NC(=O)[C@H](CC(C)C)NC(=O)[C@H](CC(C)C)NC(=O)[C@H](CC(C)C)NC(=O)[C@H](CCCCN)NC(=O)[C@H](CCC(N)=O)NC1=O [BPC184W, c(KLLLKWKKLQ)] (cyclo(KKLQKLLLKW)) | 1.6 to 3.1 µM | 22% | 32% | 3.1 to 6.2 µM | 25 to 50 µM |
| CC(C)C[C@@H]1NC(=O)[C@H](CCCCN)NC(=O)[C@H](CCCCN)NC(=O)[C@H](Cc2c[nH]c3ccccc23)NC(=O)[C@H](CCCCN)NC(=O)[C@H](CC(C)C)NC(=O)[C@H](CC(C)C)NC(=O)[C@H](CCCCN)NC(=O)[C@H](CC(C)C)NC(=O)[C@H](CCC(N)=O)NC1=O [BPC192W, c(LKLLKWKKLQ)] (cyclo(KKLQLKLLKW)) | 6.2 to 12.5 µM | 13% | 17% | 12.5 to 25 µM | 25 to 50 µM |
| CC(C)C[C@@H]1NC(=O)[C@H](CCCCN)NC(=O)[C@H](CCCCN)NC(=O)[C@H](CCC(N)=O)NC(=O)[C@H](CC(C)C)NC(=O)[C@H](CCCCN)NC(=O)[C@H](CCCCN)NC(=O)[C@H](Cc2c[nH]c3ccccc23)NC(=O)[C@H](CCCCN)NC(=O)[C@H](CCCCN)NC1=O [BPC194W, c(KKLKKWKKLQ)] (cyclo(KKLKKWKKLQ)) | 6.2 to 12.5 µM | 3% | 5% | 12.5 to 25 µM | 12.5 to 25 µM |
